Assay [1] concerns the target T1, D-alanine--D-alanine ligase (Enterococcus faecalis (strain ATCC 700802 / V583)) (UniProt Q47758).
T1 sequence (whole entry): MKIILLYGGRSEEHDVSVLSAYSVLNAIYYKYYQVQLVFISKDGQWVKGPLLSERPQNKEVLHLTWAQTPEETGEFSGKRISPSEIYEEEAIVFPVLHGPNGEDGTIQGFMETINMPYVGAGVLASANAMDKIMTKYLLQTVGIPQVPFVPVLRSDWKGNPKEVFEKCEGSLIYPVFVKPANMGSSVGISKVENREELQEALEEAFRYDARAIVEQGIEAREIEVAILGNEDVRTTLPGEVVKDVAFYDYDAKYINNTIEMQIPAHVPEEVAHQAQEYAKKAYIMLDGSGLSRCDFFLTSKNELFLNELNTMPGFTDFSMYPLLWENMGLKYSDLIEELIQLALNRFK
In words: Inhibition of Enterococcus faecalis JH2-2 C-terminal 6His-tagged DdlB expressed in Escherichia coli LMG194 assessed as residual activity at 10 uM preincubated for 30 mins followed by substrate addition and measured after 20 mins by Biomol Green reagent assay relative to control.

Assay [2] deals with T1, D-alanine--D-alanine ligase (Enterococcus faecalis (strain ATCC 700802 / V583)). Put plainly: Inhibition of Enterococcus faecalis JH2-2 C-terminal 6His-tagged DdlB expressed in Escherichia coli LMG194 at 10 uM preincubated for 30 mins followed by substrate addition and measured after 20 mins by Biomol Green reagent assay relative to control.
A further assay deals with Klebsiella pneumoniae. Put plainly: Antibacterial activity against Klebsiella pneumoniae ATCC 700603 after 18 to 24 hrs by microdilution assay. In kind it is functional, organism-based.
The test system of the next assay is Escherichia coli. Put plainly: Antibacterial activity against Escherichia coli ATCC 25922 after 18 to 24 hrs by microdilution assay. Format: functional, organism-based. A general note: In broth dilution the organism is exposed to a series of concentrations in liquid medium.
The subject of the next assay is Pseudomonas aeruginosa. Put plainly: Antibacterial activity against Pseudomonas aeruginosa PAO1 after 18 to 24 hrs by microdilution assay. Format: functional, organism-based.
The target of assay [3] is T1, D-alanine--D-alanine ligase (Enterococcus faecalis (strain ATCC 700802 / V583)). In words: Inhibition of Enterococcus faecalis JH2-2 C-terminal 6His-tagged DdlB expressed in Escherichia coli LMG194 at IC50 after 10 mins by Biomol Green reagent assay relative to control.
Assay [4] has the same target. In words: Inhibition of Enterococcus faecalis JH2-2 C-terminal 6His-tagged DdlB expressed in Escherichia coli LMG194 at IC50 after 90 mins by Biomol Green reagent assay relative to control.
For assay [5] the target is unchanged. In words: Inhibition of Enterococcus faecalis JH2-2 C-terminal 6His-tagged DdlB expressed in Escherichia coli LMG194 preincubated for 30 mins followed by substrate addition and measured after 20 mins in presence of 0.01% Triton X-100 by Biomol Green reagent assay.

The structures appear in SMILES notation. Activity calls are given as the source filed them. The calls are words filed in the database; no cut-off is given here.

Results on 40 compounds are retold here after ChEMBL document CHEMBL4382202, “1-(2-Hydroxybenzoyl)-thiosemicarbazides are promising antimicrobial agents targeting d-alanine-d-alanine ligase in bacterio” (Eur J Med Chem, 2018).

Regarding `O=C(NNC(=S)Nc1ccccc1F)c1ccccc1`, in assay [1], the Activity turned out to be 100%.
Still for that read-out and setting: the result for `O=C(NNC(=S)Nc1ccc(Cl)c(Cl)c1)c1ccc(F)cc1` reads 100%; that for `O=C(NNC(=S)Nc1cccc(Cl)c1)c1ccccc1`, 100%.
As to `N#Cc1ccc(NC(=S)NNC(=O)c2ccccc2O)cc1`, the inhibition in assay [2] is > 30%.
In the case of `CCCCCNC(=S)NNC(=O)c1ccccc1O`, in assay [2], the inhibition is > 30%.
The same measure, in the same setting: the result for `O=C(NNC(=S)Nc1cccc(I)c1)c1ccccc1O` reads > 30%.
On the same count and under the same terms, the result for `O=C(NNC(=S)Nc1ccccc1F)c1ccccc1O` reads > 30%.
For the compound `O=C(NNC(=S)Nc1ccc(OCc2ccccc2)cc1)c1ccccc1O`, in assay [2], the inhibition is > 30%.
Consider `O=C(NNC(=S)Nc1cccc(F)c1)c1ccccc1`, for which the Activity in assay [1] was 100%.
For `CC(=O)c1ccc(NC(=S)NNC(=O)c2ccccc2O)cc1`, in assay [2], the inhibition was > 30%.
Consider `O=C(NNC(=S)Nc1ccc(Cl)c(Cl)c1)c1ccc(O)cc1`, for which the Activity in assay [1] was 100%.
In turn, `O=C(NNC(=S)Nc1cccnc1)c1ccccc1O` had an inhibition in assay [2] of 30%.
Still for that read-out and setting: the result for `O=C(NNC(=S)Nc1ccc(Cl)cc1)c1ccccc1O` reads > 30%.
Take `O=C(NNC(=S)Nc1cccc(Cl)c1)c1ccccc1O`: the inhibition in assay [2] is > 30%. The MIC entry in the assay with Klebsiella pneumoniae, with Escherichia coli and with Pseudomonas aeruginosa was “inactive” throughout.
In the case of `O=C(NNC(=S)Nc1cccc(F)c1)c1ccccc1O`, the inhibition in assay [2] is > 30%.
As to `O=C(NNC(=S)Nc1ccc(Cl)cc1Cl)c1ccccc1O`, in assay [2], the inhibition is > 30%. For the same compound, the MIC entry in the assay with Klebsiella pneumoniae, with Escherichia coli and in the assay on Pseudomonas aeruginosa was “inactive” throughout.
On to `O=C(NNC(=S)Nc1ccc(Cl)cc1)c1ccccc1`, for which the Activity in assay [1] worked out at 100%.
With `O=C(NNC(=O)c1ccccc1)Nc1ccc(Cl)c(Cl)c1`, the Activity in assay [1] stood at 100%.
For `N[C@@H]1CONC1=O`, the inhibition in assay [2] was > 30%.
On the same count and under the same terms, the same measure for `O=C(NNC(=S)Nc1cccc2ccccc12)c1ccccc1O`: > 30%.
For `COc1ccccc1C(=O)NNC(=S)Nc1ccc(Cl)c(Cl)c1`, in assay [1], the Activity turned out to be 100%.
`O=C(NNC(=S)Nc1ccc(F)cc1)c1ccccc1O`: in assay [2], the inhibition is > 30%.
With `O=C(NNC(=S)Nc1ccccc1Cl)c1ccccc1O`, the inhibition in assay [2] is > 30%. For the same compound, the MIC entry with Klebsiella pneumoniae, in the assay on Escherichia coli and in the assay on Pseudomonas aeruginosa was “inactive” in each case.
On to `O=C(NNC(=S)Nc1ccc([N+](=O)[O-])cc1)c1ccc(O)cc1`, for which, in assay [1], the Activity was 100%.
As to `O=C(NNC(=S)Nc1ccc(OC(F)(F)F)cc1)c1ccccc1O`, in assay [2], the inhibition is > 30%. Also, the MIC entry with Klebsiella pneumoniae, with Escherichia coli and in the assay on Pseudomonas aeruginosa was “inactive” each time.
As to `O=C(NNC(=O)c1ccccc1O)Nc1ccc(Cl)c(Cl)c1`, in assay [1], the Activity was 100%.
For the compound `Nc1ccc(C(=O)NNC(=S)Nc2ccc(Cl)c(Cl)c2)c(O)c1`, in assay [2], the inhibition is > 30%.
Consider `O=C(NNC(=S)Nc1ccccc1)c1ccccc1O`, for which the inhibition in assay [2] was > 30%; in assay [3], 60%; in assay [4], > 90%. In addition, the inhibition entry in assay [5] is “Active”.
On to `O=c1c2ccccc2ncn1NC(=S)Nc1ccccc1`, for which the Activity in assay [1] turned out to be 100%.
On the same count and under the same terms, the same measure for `O=C(NNC(=S)Nc1ccc(Cl)c(Cl)c1)c1ccccc1F`: 100%.
Take `O=C(NNC(=S)Nc1ccc(Cl)c(Cl)c1)c1ccc(I)cc1O`: the inhibition in assay [2] was > 30%.
Same read-out and setting: the result for `O=C(NNC(=S)Nc1ccc(Cl)c(Cl)c1)c1cc2ccccc2cc1O` reads > 30%.
In the case of `O=C(NNC(=S)Nc1ccc(Cl)c(Cl)c1)c1cccc(O)c1`, in assay [1], the Activity was 100%.
Same read-out and setting: the same measure for `O=C(NNC(=S)Nc1ccc(F)cc1)c1ccccc1`: 100%.
In assay [2], `O=C(NNC(=S)NCCCN1CCOCC1)c1ccccc1O` showed an inhibition of 30%.
Take `COc1ccc(NC(=S)NNC(=O)c2ccccc2O)cc1`: the inhibition in assay [2] is > 30%.
Take `O=C(NNC(=S)Nc1ccc(Cl)c(Cl)c1)c1cccc(F)c1`: the Activity in assay [1] was 100%.
Same read-out and setting: the result for `O=C(NNC(=S)Nc1ccc(Cl)c(Cl)c1)c1ccccc1` reads 100%.
Consider `COc1ccccc1NC(=S)NNC(=O)c1ccccc1O`, for which the inhibition in assay [2] was > 30%.
In the case of `O=C(NNC(=S)Nc1ccccc1Cl)c1ccccc1`, the Activity in assay [1] is 100%.

What is called inhibition is how much of the control response was suppressed.
